A short description of assay [1]: Inhibition of TRKC L686M mutant (unknown origin) in presence of [gamma-33P]ATP by hotspot kinase assay. The arrangement: species or system Homo sapiens.
A short description of assay [2]: Inhibition of TRKA L657M mutant (unknown origin) in presence of [gamma-33P]ATP by hotspot kinase assay. Also noted: species or system Homo sapiens.
The nature of assay [3]: Inhibition of TRKA G595R/A608D double mutant (unknown origin) bin presence of [gamma-33P]ATP by hotspot kinase assay. Also noted: species or system Homo sapiens.
The nature of assay [4]: Inhibition of TRKA F589L mutant (unknown origin) in presence of [gamma-33P]ATP by hotspot kinase assay. The arrangement: species or system Homo sapiens.
Assay [5] can be described thus: Inhibition of TRKA […]/G667C double mutant (unknown origin) in presence of [gamma-33P]ATP by hotspot kinase assay. The arrangement: species or system Homo sapiens.
Assay [6] can be described thus: Inhibition of TRKA G595R/L657M double mutant(unknown origin) in presence of [gamma-33P]ATP by hotspot kinase assay. Also noted: species or system Homo sapiens.
Assay [7] in a line: Inhibition of TRKC G623R mutant (unknown origin) in presence of [gamma-33P]ATP by hotspot kinase assay. The arrangement: species or system Homo sapiens.
A short description of assay [8]: Inhibition of TRKC G696A mutant (unknown origin) in presence of [gamma-33P]ATP by hotspot kinase assay. Also noted: species or system Homo sapiens.
The target of assay [9] is BDNF/NT-3 growth factors receptor (Homo sapiens, UniProt Q16620). As to the kind of experiment: Inhibition of TRKB (unknown origin).
Sequence of BDNF/NT-3 growth factors receptor (Q16620 whole entry): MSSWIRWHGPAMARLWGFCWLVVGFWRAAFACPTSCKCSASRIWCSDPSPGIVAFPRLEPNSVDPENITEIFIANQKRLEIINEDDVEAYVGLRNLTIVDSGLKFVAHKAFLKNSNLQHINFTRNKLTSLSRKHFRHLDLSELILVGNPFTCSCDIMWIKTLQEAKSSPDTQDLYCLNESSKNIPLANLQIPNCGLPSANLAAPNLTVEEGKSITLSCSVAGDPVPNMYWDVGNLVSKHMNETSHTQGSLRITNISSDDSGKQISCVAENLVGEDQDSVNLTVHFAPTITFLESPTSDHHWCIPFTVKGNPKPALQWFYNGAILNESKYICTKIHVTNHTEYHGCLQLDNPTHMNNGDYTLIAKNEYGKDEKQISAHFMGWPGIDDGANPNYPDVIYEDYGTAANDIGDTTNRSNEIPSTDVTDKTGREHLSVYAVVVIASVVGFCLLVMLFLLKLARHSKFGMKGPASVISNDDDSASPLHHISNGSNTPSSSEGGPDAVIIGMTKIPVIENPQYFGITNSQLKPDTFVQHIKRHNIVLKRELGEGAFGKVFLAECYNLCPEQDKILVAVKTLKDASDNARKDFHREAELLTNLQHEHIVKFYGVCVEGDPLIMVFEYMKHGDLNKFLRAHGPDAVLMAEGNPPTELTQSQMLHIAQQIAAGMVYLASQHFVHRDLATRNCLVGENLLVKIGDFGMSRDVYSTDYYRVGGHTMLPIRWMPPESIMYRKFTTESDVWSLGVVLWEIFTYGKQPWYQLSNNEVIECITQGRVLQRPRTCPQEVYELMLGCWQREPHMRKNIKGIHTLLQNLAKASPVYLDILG
Another assay has as its system KM12. As to the kind of experiment: Antiproliferative activity against human KM12 cells assessed as reduction in cell viability measured after 72 hrs by MTS assay.
The next assay concerns the target T1, Aurora kinase A (Homo sapiens, UniProt O14965).
T1 sequence (O14965 whole entry): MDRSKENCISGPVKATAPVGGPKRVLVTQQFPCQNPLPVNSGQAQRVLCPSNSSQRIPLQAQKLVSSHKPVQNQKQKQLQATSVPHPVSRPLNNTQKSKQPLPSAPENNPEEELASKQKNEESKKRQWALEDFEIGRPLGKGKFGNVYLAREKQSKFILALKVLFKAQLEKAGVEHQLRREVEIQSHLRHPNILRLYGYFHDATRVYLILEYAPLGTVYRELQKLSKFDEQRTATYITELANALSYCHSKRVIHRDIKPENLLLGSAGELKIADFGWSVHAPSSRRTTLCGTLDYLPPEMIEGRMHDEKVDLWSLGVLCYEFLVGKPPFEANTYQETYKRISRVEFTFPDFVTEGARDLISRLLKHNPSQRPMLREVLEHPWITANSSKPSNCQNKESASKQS
The assay is described as follows: biochemical.

The target of assay [10] is NT-3 growth factor receptor (Homo sapiens, UniProt Q16288). As to the kind of experiment: Inhibition of TRKC (unknown origin).
Sequence of NT-3 growth factor receptor (Q16288 whole entry): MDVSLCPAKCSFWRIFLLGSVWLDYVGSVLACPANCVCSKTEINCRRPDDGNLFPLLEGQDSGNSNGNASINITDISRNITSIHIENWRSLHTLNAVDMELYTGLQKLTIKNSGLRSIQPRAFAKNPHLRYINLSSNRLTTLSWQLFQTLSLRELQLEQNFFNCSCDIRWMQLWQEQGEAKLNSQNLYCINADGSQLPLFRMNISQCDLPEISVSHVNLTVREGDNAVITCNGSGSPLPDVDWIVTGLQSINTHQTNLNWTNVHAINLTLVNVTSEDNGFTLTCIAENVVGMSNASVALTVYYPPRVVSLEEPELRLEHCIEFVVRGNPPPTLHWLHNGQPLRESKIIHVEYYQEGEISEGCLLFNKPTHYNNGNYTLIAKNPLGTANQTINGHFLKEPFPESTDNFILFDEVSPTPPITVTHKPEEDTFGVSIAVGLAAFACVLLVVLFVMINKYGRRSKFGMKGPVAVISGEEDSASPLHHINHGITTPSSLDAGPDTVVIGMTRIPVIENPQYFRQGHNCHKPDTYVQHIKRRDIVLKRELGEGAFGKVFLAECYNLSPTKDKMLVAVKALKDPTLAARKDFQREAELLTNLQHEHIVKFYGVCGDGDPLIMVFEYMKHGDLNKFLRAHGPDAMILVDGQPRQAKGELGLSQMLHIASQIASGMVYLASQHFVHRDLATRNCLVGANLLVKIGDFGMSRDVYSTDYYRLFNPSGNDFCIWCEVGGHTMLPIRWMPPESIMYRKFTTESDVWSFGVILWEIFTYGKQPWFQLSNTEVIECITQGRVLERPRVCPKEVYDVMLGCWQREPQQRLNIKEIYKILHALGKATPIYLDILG
Assay [11] concerns the target T2, High affinity nerve growth factor receptor (Homo sapiens, UniProt P04629).
A further assay deals with Aurora kinase B (Homo sapiens, UniProt Q96GD4). The assay is described as follows: Inhibition of recombinant full length His-tagged human AURB expressed in baculovirus expression system using tetra-LLRASLG peptide as substrate incubated for 180 mins in presence of ATP. Also noted: species or system Sf9.
Sequence of Aurora kinase B (Q96GD4 whole entry): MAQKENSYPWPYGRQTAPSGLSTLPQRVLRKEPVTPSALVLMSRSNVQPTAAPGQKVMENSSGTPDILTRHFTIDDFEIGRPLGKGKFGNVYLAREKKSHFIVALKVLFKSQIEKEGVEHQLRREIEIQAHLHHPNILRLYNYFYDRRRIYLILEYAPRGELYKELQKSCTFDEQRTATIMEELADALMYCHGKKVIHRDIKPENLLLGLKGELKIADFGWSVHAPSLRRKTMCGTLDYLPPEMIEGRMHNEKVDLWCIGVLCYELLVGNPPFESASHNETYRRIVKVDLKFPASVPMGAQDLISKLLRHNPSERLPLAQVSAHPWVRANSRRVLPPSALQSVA
For assay [12], the target named is T2, High affinity nerve growth factor receptor. This is another data set of the same source.
Description: Inhibition of wildtype human TRKA using poly (Glu,Tyr) 4:1 as substrate in presence of [gamma-33P]ATP by hotspot kinase assay

Some results are limits rather than exact numbers.

T2 sequence (P04629 whole entry): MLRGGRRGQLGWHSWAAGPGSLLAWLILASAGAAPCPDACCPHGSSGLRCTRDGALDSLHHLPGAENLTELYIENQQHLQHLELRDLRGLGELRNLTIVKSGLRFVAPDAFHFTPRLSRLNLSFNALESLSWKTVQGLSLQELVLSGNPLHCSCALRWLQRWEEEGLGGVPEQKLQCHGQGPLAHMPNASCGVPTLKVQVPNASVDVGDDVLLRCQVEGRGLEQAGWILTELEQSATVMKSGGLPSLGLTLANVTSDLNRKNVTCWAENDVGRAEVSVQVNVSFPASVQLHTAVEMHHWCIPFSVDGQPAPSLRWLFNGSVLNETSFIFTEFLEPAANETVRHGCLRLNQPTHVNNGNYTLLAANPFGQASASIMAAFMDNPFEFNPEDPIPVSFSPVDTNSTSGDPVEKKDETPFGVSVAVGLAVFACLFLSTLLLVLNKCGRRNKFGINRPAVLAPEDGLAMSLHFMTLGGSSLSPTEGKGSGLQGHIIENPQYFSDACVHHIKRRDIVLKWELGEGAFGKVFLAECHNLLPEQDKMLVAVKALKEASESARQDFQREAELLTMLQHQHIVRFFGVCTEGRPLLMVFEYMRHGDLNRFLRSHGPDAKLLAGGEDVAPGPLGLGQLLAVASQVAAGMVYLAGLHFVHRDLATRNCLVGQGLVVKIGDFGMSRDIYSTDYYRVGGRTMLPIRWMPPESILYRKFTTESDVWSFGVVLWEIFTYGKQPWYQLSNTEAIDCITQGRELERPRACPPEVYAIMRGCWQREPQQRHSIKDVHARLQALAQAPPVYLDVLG
Description for Aurora kinase A: Inhibition of GST-tagged AURA Ser123 to 401 residues) (unknown origin) expressed in Sf9 insect cells using tetra-LLRASLG peptide as substrate incubated for 90 mins in presence of ATP

As for `O=C(Nc1cnn2ccc(N3CCC[C@H]3c3cc(F)ccc3F)nc12)N1CC[C@@H](O)C1`, the half-maximal inhibitory concentration (IC50) in [1] is 150 nM; in assay [2], 20.7 nM; in assay [3], 80.2 nM; in [4], 52.1 nM; in assay [5] it was over 10000 nM; in [6] it was 2510 nM. The IC50 is 209 nM in [7] and 3.28 nM in assay [8].

On to `CN(C)CCCOc1ccc2c(NCCc3cnc(NC(=O)Nc4cccc(Cl)c4)s3)ncnc2c1`, for which the IC50 in assay [9] is 1.78 nM; in the assay on KM12 (Homo sapiens, KM12, 72 h), over 10000 nM; against Aurora kinase A, 5.6 nM; in assay [10], 0.21 nM; in [11], 36.8 nM.

Turning to `CCOc1cc2ncnc(Nc3ccc(NC(=O)Nc4ccccc4)cc3)c2cc1F`, the IC50 in the assay on KM12 (Homo sapiens, KM12, 72 h) worked out at 2020 nM; at Aurora kinase A, 338 nM.

With `CCOc1cc2c(NCCc3ccc(NC(=O)Nc4ccccc4)cc3)ncnc2cc1F`, the IC50 worked out at 324 nM in the assay on KM12 (km12) and 65.6 nM against Aurora kinase A.

The compound `CCOc1cc2c(NCCc3ccc(NC(=O)Nc4cccc(Cl)c4)cc3)ncnc2cc1F` returned an IC50 against Aurora kinase A of 108 nM.

As for `CCOc1cc2ncnc(Nc3ccc(NC(=O)Nc4cccc(Cl)c4)cc3)c2cc1F`, the IC50 on Aurora kinase A came to 156 nM.

Consider `CCOc1cc2ncnc(NCCc3ccc(NC(=O)Nc4cc(Cl)ccc4OC)cc3)c2cc1F`, for which the values for the IC50 on Aurora kinase B and against Aurora kinase A were 512 nM and 352 nM, respectively.

In turn, `COc1cc2ncnc(NCCc3ccc(NC(=O)Nc4ccccc4)cc3)c2cc1OC` returned an IC50 at Aurora kinase A of 23 nM.

Take `CCOc1cc2ncnc(NCCc3ccc(NC(=O)Nc4cccc(F)c4)cc3)c2cc1F`: it took 6 nM to reach half-maximal inhibition against Aurora kinase A (IC50).

In the case of `O=C(Nc1ccccc1)Nc1ccc(CCNc2ncnc3cc(F)c(F)cc23)cc1`, the half-inhibitory concentration (IC50) with KM12 (Homo sapiens, KM12, 72 h) was 1520 nM.

On Aurora kinase A, `CCOc1cc2ncnc(NCCc3ccc(NC(=O)Nc4cccc(C(F)(F)F)c4)cc3)c2cc1F` showed an IC50 of 63.2 nM.

For `CCOc1cc2ncnc(NCc3ccc(NC(=O)Nc4cccc(Cl)c4)cc3)c2cc1F`, the 50% inhibitory concentration (IC50) is 1270 nM in the assay with KM12 (Homo sapiens, KM12, 72 h) and 2 nM against Aurora kinase A.

`CCOc1cc2ncnc(NCCc3ccc(NC(=O)Nc4ccccc4)cc3)c2cc1F`: the half-inhibitory concentration (IC50) in the assay with KM12 (km12) was 324 nM; against Aurora kinase A, 29.2 nM; in assay [11] it was over 9000 nM.

Compound `O=C(Nc1ccccc1)Nc1ccc(CCNc2ncnc3ccccc23)cc1` showed an IC50 on Aurora kinase A of 140 nM.

With `CCOc1cc2ncnc(NCCc3ccc(NC(=O)Nc4cccc(Cl)c4)cc3)c2cc1F`, on Aurora kinase A, the half-maximal inhibitory concentration (IC50) turned out to be 26.9 nM.

For the compound `CCOc1cc2ncnc(NCCc3ccc(NC(=O)Nc4cc(C(F)(F)F)ccc4OC)cc3)c2cc1F`, the figures for the IC50 on Aurora kinase B and on Aurora kinase A were 548 nM and 454 nM, respectively.

On Aurora kinase A, `CCOc1cc2ncnc(NCCc3ccc(NC(=O)Nc4ccc(Cl)c(C(F)(F)F)c4)cc3)c2cc1F` showed a concentration for half-maximal inhibition (IC50) of 349 nM.

Regarding `CCOc1cc2ncnc(NCCc3ccc(NC(=O)Nc4ccc(F)c(Cl)c4)cc3)c2cc1F`, the IC50 against Aurora kinase A amounted to 44 nM.

As to `CCOc1cc2ncnc(NCc3ccc(NC(=O)Nc4ccccc4)cc3)c2cc1F`, the IC50 in the assay with KM12 (Homo sapiens, KM12, 72 h) is 2400 nM; against Aurora kinase A, 8 nM.

On to `COc1cc2nccc(Oc3ccc(NC(=O)C4(C(=O)Nc5ccc(F)cc5)CC4)cc3)c2cc1OC` [CABOZANTINIB], for which half-maximal inhibition in assay [12] (IC50) required 72.3 nM.

With `COc1cc2c(Oc3ccc(NC(=O)C4(C(=O)Nc5ccc(F)cc5)CC4)cc3F)ccnc2cc1OCCCN1CCOCC1` [FORETINIB], the IC50 in assay [12] was found to be 2.97 nM.

These data come from ChEMBL document CHEMBL5053493, “Design and synthesis of novel orally selective and type II pan-TRK inhibitors to overcome mutations by property-driven optimization” (Eur J Med Chem, 2021).
